# Laboratory results published in patent US9725434B2, “Hydroxy-substituted orexin receptor antagonists” (MERCK SHARP & DOHME CORP., priority 2013, dated 2017).
# What was measured:
# [1] = target: human orexin-1 receptor (hOX1R) (Homo sapiens, UniProt O43613); assay: FLIPR Ca2+ Flux Assay, hOX1R; assay type: cell-based; details: CHO cells expressing hOX1R; agonist 70 pM Ala-6,12 orexin-A
# Procedure: (§1) Chinese hamster ovary (CHO) cells expressing the human orexin-1 receptor (hOX1R) or the human orexin-2 receptor (hOX2R) were grown in Iscove's modified DMEM containing 2 mM L-glutamine, […], 1% hypoxanthine-thymidine supplement, 100 U/ml penicillin, 100 μg/ml streptomycin and 10% heat-inactivated fetal calf serum (FCS). The cells were seeded at 20,000 cells/well into Becton-Dickinson black 384-well clear bottom sterile plates coated with poly-D-lysine. All reagents were from GIBCO-Invitrogen Corp. The seeded plates were incubated overnight at 37° C. and 5% CO2. Ala-6,12 human orexin-A, used as the agonist, was prepared as a 1 mM stock solution in 1% bovine serum albumin (BSA) and diluted in assay buffer (HBSS containing 20 mM HEPES, 0.1% BSA and 2.5 mM probenecid, pH7.4) for use in the assay at a final concentration of 70 pM. Test compounds were prepared as 10 mM stock solution in DMSO, then diluted in 384-well plates, first in DMSO, then assay buffer.
# On the day of the assay, cells were washed 3× with 100 μl assay buffer and then incubated for 60 minutes (37° C., 5% CO2) in 60 μl assay buffer containing 1 μM Fluo-4AM ester, 0.02% pluronic acid, and 1% BSA. The dye loading solution was then aspirated and cells were washed 3× with 100 μl assay buffer. 30 μl of that same buffer was left in each well. Within the Fluorescent Imaging Plate Reader (FLIPR, Molecular Devices), test compounds were added to the plate in a volume of 25 μl, incubated for 5 minutes, and then 25 μl of agonist was added. Fluorescence was measured for each well at 1 second intervals for 5 minutes, and the height of each fluorescence peak was compared to the height of the fluorescence peak induced by 70 pM of Ala-6,12 orexin-A with buffer in place of test compound.
# [2] = target: human orexin-2 receptor (hOX2R) (Homo sapiens (Human), UniProt O43614); assay: FLIPR Ca2+ Flux Assay, hOX2R; assay type: cell-based; details: CHO cells expressing hOX2R; agonist 70 pM Ala-6,12 orexin-A
# Procedure: In a typical experiment the OX1 and OX2 receptor antagonistic activity of the compounds of the present invention was determined in accordance with the following experimental method. For intracellular calcium measurements, Chinese hamster ovary (CHO) cells expressing the rat orexin-1 receptor or the human orexin-2 receptor, are grown in Iscove's modified DMEM containing 2 mM L-glutamine, […], 1% hypoxanthine-thymidine supplement, 100 U/ml penicillin, 100 μg/ml streptomycin and 10% heat-inactivated fetal calf serum (FCS). The cells are seeded at 20,000 cells/well into Becton-Dickinson black 384-well clear bottom sterile plates coated with poly-D-lysine. All reagents were from GIBCO-Invitrogen Corp. The seeded plates are incubated overnight at 37° C. and 5% CO2. Ala-6,12 human orexin-A as the agonist is prepared as a 1 mM stock solution in 1% bovine serum albumin (BSA) and diluted in assay buffer (HBSS containing 20 mM HEPES, 0.1% BSA and 2.5 mM probenecid, pH7.4) for use in the assay at a final concentration of 70 pM. Test compounds are prepared as 10 mM stock solution in DMSO, then diluted in 384-well plates, first in DMSO, then assay buffer. On the day of the assay, cells are washed 3 times with 100 μl assay buffer and then incubated for 60 min (37° C., 5% CO2) in 60 μl assay buffer containing 1 μM Fluo-4AM ester, 0.02% pluronic acid, and 1% BSA. The dye loading solution is then aspirated and cells are washed 3 times with 100 μl assay buffer. 30 μl of that same buffer is left in each well. Within the Fluorescent Imaging Plate Reader (FLIPR, Molecular Devices), test compounds are added to the plate in a volume of 25 μl, incubated for 5 min and finally 25 μl of agonist is added. Fluorescence is measured for each well at 1 second intervals for 5 minutes and the height of each fluorescence peak is compared to the height of the fluorescence peak induced by 70 pM Ala-6,12 orexin-A with buffer in place of antagonist. […] Alternatively, compound potency can be assessed by a radioligand binding assay (described in Bergman et. al. Bioorg. Med. Chem. Lett. 2008, 18, 1425-1430) in which the inhibition constant (Ki) is determined in membranes prepared from CHO cells expressing either the OX1 or OX2 receptor. The intrinsic orexin receptor antagonist activity of a compound which may be used in the present invention may be determined by these assays.
# as §1
# On the day of the assay, cells were washed 3× with 100 μl assay buffer and then incubated for 60 minutes (37° C., 5% CO2) in 60 μl assay buffer containing 1 μM Fluo-4AM ester, 0.02% pluronic acid, and 1% BSA. The dye loading solution was then aspirated and cells were washed 3× with 100 μl assay buffer.
# Sequence of human orexin-2 receptor (hOX2R) (O43614 whole entry): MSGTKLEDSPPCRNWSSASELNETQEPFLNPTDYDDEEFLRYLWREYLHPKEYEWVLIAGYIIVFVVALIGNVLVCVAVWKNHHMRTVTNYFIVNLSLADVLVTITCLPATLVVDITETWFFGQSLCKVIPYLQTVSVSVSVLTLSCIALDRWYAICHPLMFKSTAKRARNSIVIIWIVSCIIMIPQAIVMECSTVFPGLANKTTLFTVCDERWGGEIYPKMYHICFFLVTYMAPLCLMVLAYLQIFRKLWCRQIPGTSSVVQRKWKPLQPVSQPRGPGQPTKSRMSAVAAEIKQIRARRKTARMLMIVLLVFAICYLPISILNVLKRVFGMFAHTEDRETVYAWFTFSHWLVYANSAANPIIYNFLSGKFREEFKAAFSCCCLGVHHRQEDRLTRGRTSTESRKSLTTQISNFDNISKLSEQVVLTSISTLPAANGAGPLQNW
Compound,IC50 [1] [nM],IC50 [2] [nM]
"CC(O)c1cccc(O[C@@H]2CC[C@@H](C)N(C(=O)c3ccccc3-n3nccn3)C2)c1 (stereo partly drawn) [Example 1, 1-(3-{[(3R,6R)-6-Methyl-1-{[2-(2H-1,2,3-triazol-2-yl)phenyl]carbonyl}piperidin-3-yl]oxy}phenyl)ethanol]",4510,98
"CC(O)c1cccc(O[C@@H]2CC[C@@H](C)N(C(=O)c3ccccc3-c3ncccn3)C2)c1 (stereo partly drawn) [Example 3, 1-[3-({(3R,6R)-6-Methyl-1-[(2-pyrimidin-2-ylphenyl)carbonyl]piperidin-3-yl}oxy)phenyl]ethanol]",4240,119
"C[C@@H]1CC[C@@H](Oc2cc(C(C)(C)O)ccn2)CN1C(=O)c1ccccc1-n1nccn1 [Example 4, 2-(2-{[(3R,6R)-6-Methyl-1-{[2-(2H-1,2,3-triazol-2-yl)phenyl]carbonyl}piperidin-3-yl]oxy}pyridin-4-yl)propan-2-ol]",996,20
"C[C@@H]1CC[C@@H](Oc2cccc(C(C)(O)C(F)(F)F)c2)CN1C(=O)c1ccccc1-n1nccn1 (stereo partly drawn) [Example 5, 1,1,1-Trifluoro-2-(3-{[(3R,6R)-6-methyl-1-{[2-(2H-1,2,3-triazol-2-yl)phenyl]carbonyl}piperidin-3-yl]oxy}phenyl)propan-2-ol]",5540,89
"C[C@@H]1CC[C@@H](Oc2cccc(C(C)(C)O)c2)CN1C(=O)c1ccccc1-n1nccn1 [Example 6, 2-(3-{[(3R,6R)-6-Methyl-1-{[2-(2H-1,2,3-triazol-2-yl)phenyl]carbonyl}piperidin-3-yl]oxy}phenyl)propan-2-ol]",10000,32
"C[C@@H]1CC[C@@H](Oc2cc(C3(O)CCC3)ccn2)CN1C(=O)c1ccccc1-n1nccn1 [Example 8, 1-(2-{[(3R,6R)-6-methyl-1-{[2-(2H-1,2,3-triazol-2-yl)phenyl]carbonyl}piperidin-3-yl]oxy}pyridin-4-yl)cyclobutanol]",1520,41
"CCC(C)(O)c1ccnc(O[C@@H]2CC[C@@H](C)N(C(=O)c3ccccc3-n3nccn3)C2)c1 (stereo partly drawn) [Example 9, 2-(2-{[(3R,6R)-6-Methyl-1-{[2-(2H-1,2,3-triazol-2-yl)phenyl]carbonyl}piperidin-3-yl]oxy}pyridin-4-yl)butan-2-ol]",436,14
"C[C@@H]1CC[C@@H](Oc2cc([C@](C)(O)C3CC3)ccn2)CN1C(=O)c1ccccc1-n1nccn1 [Example 11, (1R)-1-cyclopropyl-1-(2-{[(3R,6R)-6-methyl-1-{[2-(2H-1,2,3-triazol-2-yl)phenyl]carbonyl}piperidin-3-yl]oxy}pyridin-4-yl)ethanol]",297,14
"C[C@@H]1CC[C@@H](Oc2cc([C@@](C)(O)C3CC3)ccn2)CN1C(=O)c1ccccc1-n1nccn1 [Example 12, (1S)-1-cyclopropyl-1-(2-{[(3R,6R)-6-methyl-1-{[2-(2H-1,2,3-triazol-2-yl)phenyl]carbonyl}piperidin-3-yl]oxy}pyridin-4-yl)ethanol]",241,13
"C[C@@H]1CC[C@@H](Oc2cccc(C(C)(O)C3CC3)c2)CN1C(=O)c1ccccc1-n1nccn1 (stereo partly drawn) [Example 15, 1-Cyclopropyl-1-(3-{[(3R,6R)-6-methyl-1-{[2-(2H-1,2,3-triazol-2-yl)phenyl]carbonyl}-piperidin-3-yl]oxy}phenyl)ethanol]",2100,36
"C[C@@H]1CC[C@@H](Oc2cccc(C(C)(O)C3CCCC3)c2)CN1C(=O)c1ccccc1-n1nccn1 (stereo partly drawn) [Example 16, 1-Cyclopentyl-1-(3-{[(3R,6R)-6-methyl-1-{[2-(2H-1,2,3-triazol-2-yl)phenyl]carbonyl}-piperidin-3-yl]oxy}phenyl)ethanol]",3420,86
"C[C@@H]1CC[C@@H](Oc2cccc(C(C)(O)C3CCC3)c2)CN1C(=O)c1ccccc1-n1nccn1 (stereo partly drawn) [Example 17, 1-Cyclobutyl-1-(3-{[(3R,6R)-6-methyl-1-{[2-(2H-1,2,3-triazol-2-yl)phenyl]carbonyl}piperidin-3-yl]oxy}phenyl)ethanol]",8690,82
"CCC(C)(O)c1cccc(O[C@@H]2CC[C@@H](C)N(C(=O)c3ccccc3-n3nccn3)C2)c1 (stereo partly drawn) [Example 18, 2-(3-{[(3R,6R)-6-Methyl-1-{[2-(2H-1,2,3-triazol-2-yl)phenyl]carbonyl}piperidin-3-yl]oxy}phenyl)butan-2-ol]",827,24
"C[C@@H]1CC[C@@H](Oc2cc(C(C)(C)O)ccc2F)CN1C(=O)c1ccccc1-n1nccn1 [Example 20, 2-(4-Fluoro-3-{[(3R,6R)-6-methyl-1-{[2-(2H-1,2,3-triazol-2-yl)phenyl]carbonyl}piperidin-3-yl]oxy}phenyl)propan-2-ol]",10000,354
"C[C@@H]1CC[C@@H](Oc2nccc(C(C)(C)O)c2F)CN1C(=O)c1ccccc1-n1nccn1 [Example 21, 2-(3-Fluoro-2-{[(3R,6R)-6-methyl-1-{[2-(2H-1,2,3-triazol-2-yl)phenyl]carbonyl}piperidin-3-yl]oxy}pyridin-4-yl)propan-2-ol]",259,6
"C[C@@H]1CC[C@@H](Oc2ccc3c(c2)C(O)CC3)CN1C(=O)c1ccccc1-n1nccn1 (stereo partly drawn) [Example 24, 6-{[(3R,6R)-6-Methyl-1-{[2-(2H-1,2,3-triazol-2-yl)phenyl]carbonyl}piperidin-3-yl]oxy}-2,3-dihydro-1H-inden-1-ol]",2070,–
"C[C@@H]1CC[C@@H](Oc2cccc3c2CC[C@H]3O)CN1C(=O)c1ccccc1-n1nccn1 [Example 25, (1R)-4-{[(3R,6R)-6-Methyl-1-{[2-(2H-1,2,3-triazol-2-yl)phenyl]carbonyl}piperidin-3-yl]oxy}-2,3-dihydro-1H-inden-1-ol]",7200,238
"C[C@@H]1CC[C@@H](Oc2cccc3c2CC[C@@H]3O)CN1C(=O)c1ccccc1-n1nccn1 [Example 26, (1S)-4-{[(3R,6R)-6-Methyl-1-{[2-(2H-1,2,3-triazol-2-yl)phenyl]carbonyl}piperidin-3-yl]oxy}-2,3-dihydro-1H-inden-1-ol]",1530,25
"C[C@@H]1CC[C@@H](Oc2cccc3c2CCC[C@@]3(C)O)CN1C(=O)c1ccccc1-n1nccn1 [Example 29, (1R)-1-Methyl-5-{[(3R,6R)-6-methyl-1-{[2-(2H-1,2,3-triazol-2-yl)phenyl]carbonyl}piperidin-3-yl]oxy}-1,2,3,4-tetrahydronaphthalen-1-ol]",10000,123
"(1R)-6-{[(3R,6R)-6-Methyl-1-{[2-(2H-1,2,3-triazol-2-yl)phenyl]carbonyl}piperidin-3-yl]oxy}-2,3-dihydro-1H-inden-1-ol [Example 27]",1340,–
"(1S)-6-{[(3R,6R)-6-Methyl-1-{[2-(2H-1,2,3-triazol-2-yl)phenyl]carbonyl}piperidin-3-yl]oxy}-2,3-dihydro-1H-inden-1-ol [Example 28]",10000,–
